Source: patent US8372866B2, “2-aryl and 2-heteroaryl 4H-1-benzopyran-4-one-6-amidino derivatives, new pharmacological agents for the treatment of arthritis, cancer and related pain” (Rottapharm S.p.A., priority 2008, dated 2013)
Where a name gives a salt, the structure may show the parent alone. Read-outs that look alike come from different tables or passages of the source.

How the values were obtained:
[1] = tested on: Zymosan-induced mechanical hyperalgesia; assay: Zymosan-induced mechanical hyperalgesia (Randall-Selitto), model of inflammatory pain; format: in vivo, rat; details: for ED50: read-out: ED50 4 hrs
Experimental: In this model, typically a male Sprague-Dawley or Wistar rat (200-250 g) receives an interplantar injection of 3 mg/100 μl zymosan into one hind paw. A marked inflammation occurs in this hind paw. Drugs are administered orally for evaluation of efficacy, 30 min. before the inflammatory insult. […] The quantisation of the analgesic effect is achieved by an analgesimeter, which consists in applying to the inflamed paw an increasing weight (from 130-140 g up to 500 g). […] For each test compound, at least three doses were used, with 8 animals per group. Compounds of the invention were tested at 10, 20 and 40 mg/Kg.

[2] = tested on: CFA-induced prolonged inflammation; assay: CFA model of chronic inflammatory pain (Randall-Selitto); format: in vivo, rat; details: for MPE 0.5 hrs / MPE 1.5 hrs / MPE 3 hrs / MPE 6 hrs / MPE 24 hrs: NE = not effective
[3] = target: T1, recombinant human aggrecanase 1 (ADAMTS-4) (Homo sapiens, UniProt O75173); assay: InviLISA Aggrecanase activity assay, aggrecanase 1; format: biochemical; details: for inhibition at 10 µM: inhibitors tested at 10 μM final concentration
T1 construct: ADAMTS-4 aminoacids F213-A579 with C-terminal tag; purchased Invitek GmbH, Berlin
T1 sequence (O75173 213-579): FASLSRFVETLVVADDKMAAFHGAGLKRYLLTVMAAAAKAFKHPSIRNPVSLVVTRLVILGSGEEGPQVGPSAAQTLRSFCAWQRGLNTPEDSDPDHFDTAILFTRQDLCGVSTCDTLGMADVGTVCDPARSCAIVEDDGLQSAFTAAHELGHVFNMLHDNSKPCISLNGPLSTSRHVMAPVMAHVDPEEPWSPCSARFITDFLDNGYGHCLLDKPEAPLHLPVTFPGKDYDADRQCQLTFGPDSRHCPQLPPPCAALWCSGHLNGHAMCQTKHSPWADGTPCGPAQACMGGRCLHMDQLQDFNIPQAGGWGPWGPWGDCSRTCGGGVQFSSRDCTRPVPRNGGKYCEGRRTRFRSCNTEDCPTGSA
Experimental: (§1) The InviLISA Aggrecanase activity assay (Invitek GmbH, Berlin) was used to screen and characterise aggrecanase inhibitors. The assay was carried out in two steps, according to Will et al. (Will H, Dettloff M, Bendzko P, Svenshnikov P, A Quantitative Assay for aggrecanase Activity; 2005, Journal of Biomolecular Techniques, 16 (4), 459-472). A recombinant fragment of human aggrecan interglobular domain (aggrecan-IGD; T331-G458) is first digested with aggrecanase. Proteolytic cleavage of the substrate releases an aggrecan peptide with the N-terminal sequence ARGSVIL (ARGSVIL-peptide), that was then quantified with two monoclonal anti-peptide antibodies (ELISA module). For precise calculation of product, ARGSVIL-peptide standard concentrations were run in parallel.
(§2) 1) Proteolysis of aggrecan-IGD by aggrecanase. Aggrecan-IGD was incubated with standard recombinant human aggrecanase 1 (ADAMTS-4 aminoacids F213-A579 with C-terminal tag) or standard recombinant human aggrecanase 2 (ADAMTS-5 aminoacids S262-G625 with C-terminal tag) in the absence (total enzymatic activity) or presence (modulated enzymatic activity) of inhibitors to be tested. Enzymes were pre-incubated with the inhibitors or the appropriate concentration of diluent as control (DMSO 0.25% final concentration in proteolysis), at 4° C. for 30 min prior to assaying their activity. Five microliters of mix enzyme-inhibitor were added to the substrate (0.1 μM final concentration) in a total volume of 100 μL and incubated for 15 minutes at 37° C. The reaction was terminated with EDTA-containing buffer. The inhibitors were tested at 10 μM final concentration and compounds achieving ≧50% inhibitory effect were evaluated for IC50 calculation, in a range generally extended from 0.1 to 10 μM final concentration.
(§3) 2) Aggrecan peptide ELISA. ARGSVIL-peptide standard, proteolytic digestion of Aggrecan-IGD with standard aggrecanases and test samples were incubated in microtiter wells pre-coated with anti-ARGSVIL-neoepitope antibody. ARGSVIL-peptide is bound to the coated antibody, while other components are removed by washing and aspiration. The bound ARGSVIL-peptide was detected with a second peroxidase-labelled antibody. Any excess of the conjugate was removed by washing and aspiration. The amount of peroxidase bound to different wells was determined in reactions with peroxidase substrate TMB. The reactions are stopped by addition of sulphuric acid solution and absorbance is read at 450 nm in a microtiter plate spectrophotometer.

[4] = target: T2, recombinant human aggrecanase 2 (ADAMTS-5) (Homo sapiens, UniProt Q9UNA0); assay: InviLISA Aggrecanase activity assay, aggrecanase 2; format: biochemical; details: for inhibition at 10 µM: inhibitors tested at 10 μM final concentration
T2 construct: ADAMTS-5 aminoacids S262-G625 with C-terminal tag; purchased Invitek GmbH, Berlin
T2 sequence (Q9UNA0 262-625): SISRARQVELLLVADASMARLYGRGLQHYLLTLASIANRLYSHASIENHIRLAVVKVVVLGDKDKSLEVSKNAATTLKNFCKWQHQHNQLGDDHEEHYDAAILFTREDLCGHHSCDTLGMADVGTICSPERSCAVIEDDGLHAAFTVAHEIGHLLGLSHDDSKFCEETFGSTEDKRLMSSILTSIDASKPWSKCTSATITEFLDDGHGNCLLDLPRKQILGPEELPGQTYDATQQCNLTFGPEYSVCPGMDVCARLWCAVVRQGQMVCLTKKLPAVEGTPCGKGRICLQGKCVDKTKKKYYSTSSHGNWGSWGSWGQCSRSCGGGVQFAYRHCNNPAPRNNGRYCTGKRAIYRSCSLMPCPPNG
Experimental: as §1, §2, §3

[5] = tested on: mechanical hyperalgesia associated with STZ-induced diabetes; assay: STZ-induced diabetes mechanical hyperalgesia, model of neuropathic pain (Randall-Selitto); format: in vivo, rat; details: for MPE 0.5 hrs / MPE 1.5 hrs / MPE 3 hrs: NE = not effective
Experimental: Painful diabetic neuropathy is one of the most common complications of insulin-dependent diabetes in man; in particular, diabetes can be associated with neuropathic pain which fails to be treated by classical analgesics. Streptozotocin (STZ)-induced diabetes in the rat has been increasingly used as a model of painful diabetic neuropathy to assess the efficacies of potential analgesic agents (C. Courteix, Pain 1993, 53, 81-8). A representative compound of the invention was tested for efficacy in reducing mechanical hyperalgesia associated with STZ-induced diabetes in the rat, according to the experimental model as described by the literature. Diabetes was produced with the injection of a single dose (75 mg/Kg i.p.) of STZ. In the following four weeks after the induction of diabetes the clinical symptoms (weight, body and skin temperature, motility and hyperglycemia) progressively developed by the animals, are strictly monitored.
After four weeks, the scores obtained in diabetic rats to various pain stimuli (in particular mechanical stimuli) were greater than those in normal rats, indicating hyperalgesia. The hyperalgesia induced by diabetes was evaluated using the Randall-Selitto method as above described, and quantitated using the analgesimeter. Also in this case, the difference in the mechanical pain threshold between the basal value (generally 230-250 g) and the one tolerated by the animals treated with the drug, is defined as mechanical hyperalgesia. The compound of the invention was administered i.p. (solution, Tween 80, 10% in saline) at different doses, and mechanical hyperalgesia was measured at the reported time, as maximum percent effect (MPE) which represents the difference (%) in pain threshold between the animals treated with the drug and the controls that received only the vehicle, compared with the weight borne by naïf non-diabetic controls. A 100% protection means that the diabetic animals treated with the compound can tolerate the same stimulus (weight) as the naïf non-diabetic animals. MPE higher than 100% means that the diabetic animal treated with the compound can tolerate stimuli (weight) higher than the control non-diabetic animals (hypoalgesia).
In Table 4, the effect of a representative compound of formula (I), in the above described model of neuropathic pain, is compared with some known pharmacological standards used for the clinical treatment of this pathology. In particular, from the MPE data at 0.5 hrs, the doses yielding a protection of 50% (ED50) and 100% (ED100) have been calculated.

[6] = rat, OS, 4 hrs after zymosan, NC = not calculable

For `Cc1ccc(-c2cc(C(F)(F)F)nn2-c2ccc(S(N)(=O)=O)cc2)cc1` [Celecoxib, reference compound], the ED50 [1, 6] was 9 mg/kg.

`COc1ccc(-c2cc(=O)c3cc(NC(C)=N)ccc3o2)cc1` [Example 2, 2-(4-methoxyphenyl)-6-[(1-iminoethyl)amino]-4H-1-benzopyran-4-one hydrochloride monohydrate] was tested, and the “MPE 0.5 hrs” value ([2]; 3 mg/Kg IP) was 91%, the “MPE 1.5 hrs” value ([2]; 3 mg/Kg IP) was 87% and the “MPE 3 hrs” value ([2]; 3 mg/Kg IP) was 32%. For the same compound, the “MPE 0.5 hrs” value ([2]; 10 mg/Kg IP) was 193%, the “MPE 1.5 hrs” value ([2]; 10 mg/Kg IP) was 105% and the “MPE 3 hrs” value ([2]; 10 mg/Kg IP) was 42%. The “MPE 6 hrs” value ([2]; 10 mg/Kg IP) was 43%, the “MPE 24 hrs” value ([2]; 10 mg/Kg IP) was 38% and the “MPE 0.5 hrs” value ([2]; 30 mg/Kg IP) was 254%. The “MPE 1.5 hrs” value ([2]; 30 mg/Kg IP) was 190%, the “MPE 3 hrs” value ([2]; 30 mg/Kg IP) was 146% and the “MPE 6 hrs” value ([2]; 30 mg/Kg IP) was 89%. For the same compound, the “MPE 24 hrs” value ([2]; 30 mg/Kg IP) was 45%, the “ED100 0.5 hrs” value ([2]; IP, calculated from the MPE data at 0.5 hrs) was 3.15 mg/kg and the ED50 ([2]; Rattus norvegicus, ip, 0.5 h, read-out: ED50 0.5 hrs) was 1.56 mg/kg. The inhibition at 10 µM [3] was 30%, the ED50 ([1]; Rattus norvegicus, 4 h) was 6.5 mg/kg and the “ED100 4 hrs” value [1, 6] was 18 mg/kg. It also gave an inhibition at 10 µM [4] of 30%.

In the case of `CC(=N)Nc1ccc2oc(-c3ccc4c(c3)OCO4)cc(=O)c2c1` [Example 4, 2-(benzo[1,3]dioxol-5-yl)-6-[(1-iminoethyl)amino]-4H-1-benzopyran-4-one hydrochloride], the inhibition at 10 µM [3] is reported as 40%, the ED50 ([1]; Rattus norvegicus, 4 h) is reported as 12 mg/kg and the “ED100 4 hrs” value [1, 6] is reported as 35 mg/kg. For the same compound, the inhibition at 10 µM [4] was 10%.

In the case of `CC(=N)Nc1ccc2oc(-c3ccc(F)cc3)cc(=O)c2c1` [Example 3, 2-(4-fluorophenyl)-6-[(1-iminoethyl)amino]-4H-1-benzopyran-4-one], the inhibition at 10 µM [3] is reported as 40%, the “ED100 4 hrs” value [1, 6] is reported as 24 mg/kg and the ED50 [1, 6] is reported as 12 mg/kg. The IC50 [4] was 10 µM.

For `CS(=O)(=O)Nc1ccc([N+](=O)[O-])cc1Oc1ccccc1` [Nimesulide, reference compound], the ulcerative side effects ([1]; even at the higher doses tested) was “ulcerative side effects” and the ED50 [1, 6] was 5 mg/kg.

`COc1cccc(C2(O)CCCCC2CN(C)C)c1` (stereo not drawn) [Tramadol] was tested, and the ED50 ([1]; Rattus norvegicus, 4 h) was 25.7 mg/kg, the “MPE 0.5 hrs” value ([5]; 3 mg/Kg IP) was 26% and the “MPE 1.5 hrs” value ([5]; 3 mg/Kg IP) was 53%. The “MPE 0.5 hrs” value ([5]; 10 mg/Kg IP) was 58%, the “MPE 1.5 hrs” value ([5]; 10 mg/Kg IP) was 48% and the “MPE 3 hrs” value ([5]; 10 mg/Kg IP) was 27%. For the same compound, the “MPE 0.5 hrs” value ([5]; 30 mg/Kg IP) was 54%, the “MPE 1.5 hrs” value ([5]; 30 mg/Kg IP) was 64% and the “MPE 3 hrs” value ([5]; 30 mg/Kg IP) was 23%. The “MPE 0.5 hrs” value ([5]; 50 mg/Kg IP) was 81%, the “MPE 1.5 hrs” value ([5]; 50 mg/Kg IP) was 60% and the “MPE 3 hrs” value ([5]; 50 mg/Kg IP) was 43%. The ED50 ([5]; Rattus norvegicus, ip, 0.5 h, read-out: ED50 0.5 hrs, IP, calculated from the MPE data at 0.5 hrs, NC = not calculable) was 10.9 mg/kg.

Work on `COCCC(=N)Nc1ccc2oc(-c3ccc4c(c3)OCO4)c(O)c(=O)c2c1` [Example 19, 2-(benzo[1,3]dioxol-5-yl)-3-hydroxy-6-[(1-iminopropyl-3-methoxy)amino]-4H-1-benzopyran-4-one hydrochloride] yielded an inhibition at 10 µM [3] of 0% and an IC50 [4] of 8 µM.

`COc1ccc(-c2oc3ccc(NC(C)=N)cc3c(=O)c2O)cc1` [Example 12, 2-(4-methoxyphenyl)-3-hydroxy-6-[(1-iminoethyl)amino]-4H-1-benzopyran-4-one hydrochloride monohydrate] showed an IC50 [3] of 2.7 µM and an IC50 [4] of 1.12 µM.

Work on `COc1ccc(C(=N)Nc2ccc3oc(-c4ccc(OC)cc4)c(O)c(=O)c3c2)cc1` [Example 14, N-[2-(4-methoxyphenyl)-3-hydroxy-4H-1-benzopyran-4-one-6-yl]-4-methoxybenzene carboxiimidamide hydrochloride] yielded an inhibition at 10 µM [3] of 0% and an IC50 [4] of 10 µM.

With `CC(=N)Nc1ccc2oc(-c3ccc4c(c3)OCO4)c(O)c(=O)c2c1` [Example 16, 2-(benzo[1,3]dioxol-5-yl)-3-hydroxy-6-[(1-iminoethyl)amino]-4H-1-benzopyran-4-one hydrochloride] the inhibition at 10 µM [3] was 32% and the IC50 [4] was 5 µM.
